Results taken from patent US20110082130A1 (LIGAND PHARMACEUTICALS, INC., priority 2006, published 2011).

Molecular target: T1, chimeric human H3 receptor (Homo sapiens, UniProt Q9Y5N1)
T1 construct: made in house; host or cells: Sf9 insect cells (baculovirus); P2 membrane preparation
Assay: Chimeric human H3 receptor screening GTP binding assay (inhibition of histamine-stimulated GTP-gamma35S binding, Example 8)
Assay type: biochemical
Settings: 4 μM of the compound, 1 μM histamine, "†" in Ki of Table II, read-out: percent inhibition of the signal obtained with 1 μM histamine
Method: This Example illustrates a representative screening assay for evaluating inhibition of histamine-stimulated GTP-gamma^35S binding. Such GTP binding activity can be used to identify H3 antagonists and inverse agonists. A compound analyzed in this assay is referred to herein as a “test compound,” and the initial identification of antagonists and inverse agonists is performed using a test compound concentration of 4 μM.
Four independent baculoviral stocks (one directing the expression of the chimeric human H3 receptor and three directing the expression of each of the three subunits of a heterotrimeric G-protein) are used to infect a culture of Sf9 cells as described above. P2 membranes are prepared as described above, and are resuspended by Dounce homogenization (tight pestle) in GTP binding assay buffer (50 mM Tris pH 7.4, 120 mM NaCl, 5 mM MgCl2, 2 mM EGTA, 1 mg/ml BSA, 0.2 mg/ml bacitracin, 0.02 mg/ml aprotinin, 0.01 mg/ml saponin, 10 μM GDP) and added to assay tubes at a concentration of 35 μg protein/reaction tube. Non-radiolabeled test compounds are added to separate reactions at a concentration of 4 μM along with 1 μM histamine (agonist). Reactions are initiated by the addition of […] GTP-gamma^35S with a final assay volume of 0.20 ml.
After a 60-min incubation at room temperature, reactions are terminated by vacuum filtration over GF/C filters (pre-soaked in 50 mM Tris pH 7.4, 120 mM NaCl plus 0.1% BSA) followed by washing with ice-cold buffer (50 mM Tris pH 7.4, 120 mM NaCl). The amount of receptor-bound (and thereby membrane-bound) GTP-gamma^35S is determined by measuring the bound radioactivity, preferably by liquid scintillation spectrometry of the washed filters. Non-specific binding is determined using 10 uM GTP-gammaS and typically represents less than 5 percent of total binding. After subtraction of non-specific binding, data is expressed as percent inhibition of 1 μM histamine signal.
Neutral antagonists are those test compounds that reduce the histamine-stimulated GTP binding activity towards, but not below, baseline levels. In contrast, in the absence of added histamine, inverse agonists reduce the GTP binding activity of the receptor-containing membranes below baseline. Any test compound that elevates GTP binding activity above baseline in the absence of added histamine in this assay is defined as having agonist activity.

T1 sequence (Q9Y5N1 with tags, fused parts or gaps): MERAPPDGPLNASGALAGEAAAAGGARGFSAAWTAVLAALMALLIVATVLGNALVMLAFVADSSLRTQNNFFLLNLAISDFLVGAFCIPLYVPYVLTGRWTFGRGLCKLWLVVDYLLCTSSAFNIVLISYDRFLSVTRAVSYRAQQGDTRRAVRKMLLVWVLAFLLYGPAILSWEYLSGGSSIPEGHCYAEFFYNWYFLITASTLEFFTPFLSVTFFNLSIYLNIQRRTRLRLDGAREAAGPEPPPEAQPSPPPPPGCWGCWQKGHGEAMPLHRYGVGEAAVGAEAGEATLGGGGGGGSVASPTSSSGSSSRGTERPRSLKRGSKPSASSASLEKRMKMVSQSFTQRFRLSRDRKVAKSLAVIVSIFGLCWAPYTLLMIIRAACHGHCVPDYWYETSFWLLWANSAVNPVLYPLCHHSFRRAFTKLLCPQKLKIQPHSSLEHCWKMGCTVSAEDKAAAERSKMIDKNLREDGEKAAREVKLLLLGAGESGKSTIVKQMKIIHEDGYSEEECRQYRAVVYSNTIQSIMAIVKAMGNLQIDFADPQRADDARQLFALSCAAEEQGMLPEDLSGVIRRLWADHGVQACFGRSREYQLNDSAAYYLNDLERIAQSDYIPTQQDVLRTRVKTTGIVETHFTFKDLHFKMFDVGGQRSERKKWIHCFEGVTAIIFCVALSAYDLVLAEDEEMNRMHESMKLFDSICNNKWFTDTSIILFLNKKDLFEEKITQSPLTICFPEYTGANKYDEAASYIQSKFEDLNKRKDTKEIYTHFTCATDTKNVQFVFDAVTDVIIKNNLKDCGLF

| inhibition at 4 µM | Compound |
| --- | --- |
| ≥ 90% | O=C(CN1CCc2cc(-c3ccccc3F)ccc2C1)N1CCN(C2CCC2)CC1 [Compound 414, 2-[2-(4-cyclobutylpiperazin-1-yl)-2-oxoethyl]-6-(2-fluorophenyl)-1,2,3,4-tetrahydroisoquinoline] |
| ≥ 90% | O=C(CN1CCc2cc(-c3ccccc3F)ccc2C1)N1CCN(C2CCCC2)CC1 [Compound 415, 2-[2-(4-cyclopentylpiperazin-1-yl)-2-oxoethyl]-6-(2-fluorophenyl)-1,2,3,4-tetrahydroisoquinoline] |
| ≥ 90% | O=C(CN1CCc2cc(-c3ccc4ccccc4c3)ccc2C1)N1CCN(C2CCC2)CC1 [Compound 416, 2-[2-(4-cyclobutylpiperazin-1-yl)-2-oxoethyl]-6-(2-naphthyl)-1,2,3,4-tetrahydroisoquinoline] |
| ≥ 90% | O=C(CN1CCc2cc(-c3ccc4ccccc4c3)ccc2C1)N1CCN(C2CCCC2)CC1 [Compound 417, 2-[2-(4-cyclopentylpiperazin-1-yl)-2-oxoethyl]-6-(2-naphthyl)-1,2,3,4-tetrahydroisoquinoline] |
| ≥ 90% | O=C(CN1CCc2cc(-c3ccc4ccccc4c3)ccc2C1)N1CCN(C2CCCCC2)CC1 [Compound 418, 2-[2-(4-cyclohexylpiperazin-1-yl)-2-oxoethyl]-6-(2-naphthyl)-1,2,3,4-tetrahydroisoquinoline] |
| ≥ 90% | CC(C)N1CCN(C(=O)CN2CCc3cc(-c4ccc5ccccc5c4)ccc3C2)CC1 [Compound 419, 2-[2-(4-isopropylpiperazin-1-yl)-2-oxoethyl]-6-(2-naphthyl)-1,2,3,4-tetrahydroisoquinoline] |
| ≥ 90% | Cc1ccc(-c2ccc3c(c2)CCN(CC(=O)N2CCN(C4CCC4)CC2)C3)c(F)c1 [Compound 420, 2-[2-(4-cyclobutylpiperazin-1-yl)-2-oxoethyl]-6-(2-fluoro-4-methylphenyl)-1,2,3,4-tetrahydroisoquinoline] |
| ≥ 90% | Cc1ccc(-c2ccc3c(c2)CCN(CC(=O)N2CCN(C4CCCC4)CC2)C3)c(F)c1 [Compound 421, 2-[2-(4-cyclopentylpiperazin-1-yl)-2-oxoethyl]-6-(2-fluoro-4-methylphenyl)-1,2,3,4-tetrahydroisoquinoline] |
| ≥ 90% | Cc1ccc(-c2ccc3c(c2)CCN(CC(=O)N2CCN(C4CCCCC4)CC2)C3)c(F)c1 [Compound 422, 2-[2-(4-cyclohexylpiperazin-1-yl)-2-oxoethyl]-6-(2-fluoro-4-methylphenyl)-1,2,3,4-tetrahydroisoquinoline] |
| ≥ 90% | Cc1ccc(F)c(-c2ccc3c(c2)CCN(CC(=O)N2CCN(C4CCC4)CC2)C3)c1 [Compound 423, 2-[2-(4-cyclobutylpiperazin-1-yl)-2-oxoethyl]-6-(2-fluoro-5-methylphenyl)-1,2,3,4-tetrahydroisoquinoline] |
| ≥ 90% | Cc1ccc(F)c(-c2ccc3c(c2)CCN(CC(=O)N2CCN(C4CCCC4)CC2)C3)c1 [Compound 424, 2-[2-(4-cyclopentylpiperazin-1-yl)-2-oxoethyl]-6-(2-fluoro-5-methylphenyl)-1,2,3,4-tetrahydroisoquinoline] |
| ≥ 90% | Cc1ccc(F)c(-c2ccc3c(c2)CCN(CC(=O)N2CCN(C4CCCCC4)CC2)C3)c1 [Compound 425, 2-[2-(4-cyclohexylpiperazin-1-yl)-2-oxoethyl]-6-(2-fluoro-5-methylphenyl)-1,2,3,4-tetrahydroisoquinoline] |
| ≥ 90% | Cc1ccc(-c2ccc3c(c2)CCN(CC(=O)N2CCN(C4CCC4)CC2)C3)cc1F [Compound 426, 2-[2-(4-cyclobutylpiperazin-1-yl)-2-oxoethyl]-6-(3-fluoro-4-methylphenyl)-1,2,3,4-tetrahydroisoquinoline] |
| ≥ 90% | Cc1ccc(-c2ccc3c(c2)CCN(CC(=O)N2CCN(C4CCCC4)CC2)C3)cc1F [Compound 427, 2-[2-(4-cyclopentylpiperazin-1-yl)-2-oxoethyl]-6-(3-fluoro-4-methylphenyl)-1,2,3,4-tetrahydroisoquinoline] |
| ≥ 90% | Cc1ccc(-c2ccc3c(c2)CCN(CC(=O)N2CCN(C4CCCCC4)CC2)C3)cc1F [Compound 428, 2-[2-(4-cyclohexylpiperazin-1-yl)-2-oxoethyl]-6-(3-fluoro-4-methylphenyl)-1,2,3,4-tetrahydroisoquinoline] |
| ≥ 90% | Cc1cc(-c2ccc3c(c2)CCN(CC(=O)N2CCN(C4CCC4)CC2)C3)ccc1F [Compound 429, 2-[2-(4-cyclobutylpiperazin-1-yl)-2-oxoethyl]-6-(4-fluoro-3-methylphenyl)-1,2,3,4-tetrahydroisoquinoline] |
| ≥ 90% | Cc1cc(-c2ccc3c(c2)CCN(CC(=O)N2CCN(C4CCCC4)CC2)C3)ccc1F [Compound 430, 2-[2-(4-cyclopentylpiperazin-1-yl)-2-oxoethyl]-6-(4-fluoro-3-methylphenyl)-1,2,3,4-tetrahydroisoquinoline] |
| ≥ 90% | Cc1cc(-c2ccc3c(c2)CCN(CC(=O)N2CCN(C4CCCCC4)CC2)C3)ccc1F [Compound 431, 2-[2-(4-cyclohexylpiperazin-1-yl)-2-oxoethyl]-6-(4-fluoro-3-methylphenyl)-1,2,3,4-tetrahydroisoquinoline] |
| ≥ 90% | Cc1cccc(-c2ccc3c(c2)CCN(CC(=O)N2CCN(C4CCC4)CC2)C3)c1 [Compound 432, 2-[2-(4-cyclobutylpiperazin-1-yl)-2-oxoethyl]-6-(3-methylphenyl)-1,2,3,4-tetrahydroisoquinoline] |
| ≥ 90% | Cc1cccc(-c2ccc3c(c2)CCN(CC(=O)N2CCN(C4CCCC4)CC2)C3)c1 [Compound 433, 2-[2-(4-cyclopentylpiperazin-1-yl)-2-oxoethyl]-6-(3-methylphenyl)-1,2,3,4-tetrahydroisoquinoline] |
| ≥ 90% | Cc1cccc(-c2ccc3c(c2)CCN(CC(=O)N2CCN(C4CCCCC4)CC2)C3)c1 [Compound 434, 2-[2-(4-cyclohexylpiperazin-1-yl)-2-oxoethyl]-6-(3-methylphenyl)-1,2,3,4-tetrahydroisoquinoline] |
| ≥ 90% | Cc1ccc(-c2ccc3c(c2)CCN(CC(=O)N2CCN(C4CCC4)CC2)C3)cc1 [Compound 435, 2-[2-(4-cyclobutylpiperazin-1-yl)-2-oxoethyl]-6-(4-methylphenyl)-1,2,3,4-tetrahydroisoquinoline] |
| ≥ 90% | Cc1ccc(-c2ccc3c(c2)CCN(CC(=O)N2CCN(C4CCCC4)CC2)C3)cc1 [Compound 436, 2-[2-(4-cyclopentylpiperazin-1-yl)-2-oxoethyl]-6-(4-methylphenyl)-1,2,3,4-tetrahydroisoquinoline] |
| ≥ 90% | Cc1ccc(-c2ccc3c(c2)CCN(CC(=O)N2CCN(C4CCCCC4)CC2)C3)cc1 [Compound 437, 2-[2-(4-cyclohexylpiperazin-1-yl)-2-oxoethyl]-6-(4-methylphenyl)-1,2,3,4-tetrahydroisoquinoline] |
| ≥ 90% | Cc1ccc(-c2ccc3c(c2)CCN(CC(=O)N2CCN(C(C)C)CC2)C3)cc1 [Compound 438, 2-[2-(4-isopropylpiperazin-1-yl)-2-oxoethyl]-6-(4-methylphenyl)-1,2,3,4-tetrahydroisoquinoline] |
| ≥ 90% | CC(C)c1cccc(-c2ccc3c(c2)CCN(CC(=O)N2CCN(C4CCC4)CC2)C3)c1 [Compound 439, 2-[2-(4-cyclobutylpiperazin-1-yl)-2-oxoethyl]-6-(3-isopropylphenyl)-1,2,3,4-tetrahydroisoquinoline] |
| ≥ 90% | CC(C)c1cccc(-c2ccc3c(c2)CCN(CC(=O)N2CCN(C4CCCC4)CC2)C3)c1 [Compound 440, 2-[2-(4-cyclopentylpiperazin-1-yl)-2-oxoethyl]-6-(3-isopropylphenyl)-1,2,3,4-tetrahydroisoquinoline] |
| ≥ 90% | CC(C)c1cccc(-c2ccc3c(c2)CCN(CC(=O)N2CCN(C4CCCCC4)CC2)C3)c1 [Compound 441, 2-[2-(4-cyclohexylpiperazin-1-yl)-2-oxoethyl]-6-(3-isopropylphenyl)-1,2,3,4-tetrahydroisoquinoline] |
| ≥ 90% | CC(C)c1cccc(-c2ccc3c(c2)CCN(CC(=O)N2CCN(C(C)C)CC2)C3)c1 [Compound 442, 6-(3-isopropylphenyl)-2-[2-(4-isopropylpiperazin-1-yl)-2-oxoethyl]-1,2,3,4-tetrahydroisoquinoline] |
| ≥ 90% | CC(C)c1ccc(-c2ccc3c(c2)CCN(CC(=O)N2CCN(C4CCC4)CC2)C3)cc1 [Compound 443, 2-[2-(4-cyclobutylpiperazin-1-yl)-2-oxoethyl]-6-(4-isopropylphenyl)-1,2,3,4-tetrahydroisoquinoline] |
